Measurements published in paper PMC8049054, “Systematic Assessment of Fragment Identification for Multitarget Drug Design” (Chemmedchem, 2021).
Marks after values point to notes of the source that are not given here.

Experiments:
[1] = system: T1, farnesoid X receptor (FXR); assay: Differential scanning fluorimetry (DSF) screen on FXR; assay type: binding, human; conditions: 500 μM fragment, mean of duplicates
T1 construct: made in house; host or cells: E. coli BL21 (DE3)
Source text: For the primary screen of this fragment library, we employed differential scanning fluorimetry (DSF, also known as thermal shift). DSF is generally applicable to a large panel of protein targets and provides a robust, low‐cost screening technology for fragment‐based approaches. ^[20] […] We performed an initial fragment screen on all five targets by DSF.
Figure S3: SDS page of the purified proteins (proteins RXRα and FXR after TEV cleavage) using a 14% polyacrylamide gel, which was stained with coomassi. Precision Plus Protein™ Unstained Protein Standard s (Bio-Rad Laboratories, Inc. ) was used […]
All experiments were performed as duplicates using MicroAmp fast 96 -well plates. Each plate contained 80 different compound wells and 16 DMSO control wells. First 0.8 µl of a 25 mM Preswick Library Fragment dilution in DMSO or pure DMSO were placed in each of the well (final concentration 500 µM). Then 39.2 µl of the master mi x (containing protein, Triton x -100, SYPRO® Orange Protein Gel Stain and buffer that corresponds to the tested protein) were added.
Table S4: Final concentrations in DSF experiments:
Protein Final concentrations under screening conditions
The measurements were performed using a iCycler iQ™ Single -Color Real Time PCR device with a heat rate of 1 °C per min, an excitation wavelength of 490 nm and an emission wavelength of 570 nm. The first derivation calculated by MyiQ Op tical Software 1.0 was analyzed using Microsoft Office Excel 2013 by comparing the maxima. A shift of 1 °C (in case of 5 -LOX 0.9°C) or more compared to the DMSO control were assumed as potentially binding of the fragment.
(1 picture or pasted object on this page, not shown here)

[2] = biological target: T2, leukotriene A4 hydrolase (LTA4H) (Homo sapiens, UniProt P09960); assay: LTA4H activity assay (fluorogenic substrate Arg-AMC); assay type: biochemical; conditions: for LTA4H LE: ligand efficiency calculated from IC50; for IC50: mean±standard deviation of three independent experiments
T2 construct: made in house; host or cells: E. coli BL21 (DE3)
T2 sequence (P09960 1-611): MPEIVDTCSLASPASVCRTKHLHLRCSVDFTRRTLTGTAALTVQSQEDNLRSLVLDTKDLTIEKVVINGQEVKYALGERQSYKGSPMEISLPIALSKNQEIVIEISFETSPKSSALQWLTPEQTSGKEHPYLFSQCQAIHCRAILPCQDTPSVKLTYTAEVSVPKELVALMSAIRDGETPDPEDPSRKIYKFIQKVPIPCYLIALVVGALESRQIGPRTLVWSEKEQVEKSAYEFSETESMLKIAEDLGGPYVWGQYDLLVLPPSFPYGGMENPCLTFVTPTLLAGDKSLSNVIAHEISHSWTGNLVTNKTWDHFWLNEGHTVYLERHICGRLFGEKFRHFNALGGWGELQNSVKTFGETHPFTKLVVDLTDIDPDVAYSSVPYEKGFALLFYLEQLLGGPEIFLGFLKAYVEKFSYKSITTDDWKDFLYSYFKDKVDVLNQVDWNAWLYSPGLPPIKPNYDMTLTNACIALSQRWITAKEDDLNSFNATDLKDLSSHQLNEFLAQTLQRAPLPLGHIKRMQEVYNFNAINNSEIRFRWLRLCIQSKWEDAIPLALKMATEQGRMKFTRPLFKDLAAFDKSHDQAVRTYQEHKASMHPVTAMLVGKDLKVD
Description: For hit validation, we employed secondary assays with orthogonal readouts to confirm fragment activities. Biochemical activity assays were chosen for the enzymes sEH, LTA4H, and 5‐LOX. […] RXRα and FXR modulation was assessed in cell‐based hybrid reporter gene assays. All ten compounds were tested at a single concentration of 500 μM in the sEH and LTA4H activity assays and with a concentration of 100 μM on 5‐LOX, RXRα, and FXR. Fragments showing an inhibition greater than 50 % (sEH‐H and LTA4H) or greater than 70 % (5‐LOX) as well as the hits determined in the DSF experiments were further characterized in full concentration‐response curves between 0.1 and 1000 μM. […] As alternative cell‐free assay we employed isothermal titration calorimetry (ITC) to determine binding affinity of the fragments towards the LBDs of both nuclear receptors. ITC was performed with a protein concentration of 50 μM and compound concentrations of 250 μM.
The 10 fragments showing dual activity in the DSF experiments were validated by functional assay screening with a fixed concentration of 500 µM in case of sEH-H and LTA4H, 100 µM in case of 5-LOX and 30 µM, 10 µM and 5 µM in case of FXR and […]
% (5-LOX) as well as the hits determined in the DSF experiments were further measured with concentrations between 1000 µM and 0.1 µM (sEH-H and LTA4H) and between 300 µM and 1 µM (5-LOX). The sEH and LTA4H activity assays were performed as triplicate and repeated 3 times. The 5-LOX activity assay was performed with one point per concentration and repeated 3 times Raw data was first analyzed in Microsoft Office Excel (2013), before IC50 curves were plotted and further analyzed using GraphPad Prism 7 and GraphPad Prism 8 for the shown graphs .
The eight approved drugs were measured in the orthogonal assay systems analogous to the fragments. The approved drugs were […]
For the sEH-H and LTA4H, they were measured as triplicate in concentrations between 1000 µM and 1 µM and each measurement was repeated three times. […]
Raw data was processed according to the fragments. […]
The LTA4H activity assay was performed adapted from Hiesinger et al.3.As in the sEH-H measurement 1 µl of compound dilution in DMSO or pure DMSO (for the positive and negative control) was placed in a black 96-well plate (Thermo Scientific™ Nunc™ F96 MicroWell™ Black Polystyrene Plate) and then 89 µl of protein-mix or buffer mix (without protein as negative control) were added and incubated for 30 min at room temperature.

Structure (SMILES) | DSF/ΔT m FXR [1] | LTA4H LE [2] [kcal/mol] | IC50 [2] [µM]
c1ccc(N2CCNCC2)nc1 [Compound 1] | −0.1±0.0 °C | – | –
Cc1cc(=O)n(-c2ccc(C)c(C)c2)[nH]1 [Compound 2] | 0.3±0.0 °C | – | –
CCCCOc1cc(C(=O)OC)ccc1N [Compound 3] | 1.4±0.7 °C | 0.39 | 24.6 ± 3.2
Oc1ccc(Cc2ccccc2)cc1 [Compound 4] | – | – | 3 ± 0.5
Cc1ccccc1C(=O)Nc1ccccc1 [Compound 6] | −1.2±0.7 °C | – | –

Second part, the compound after the results:

DSF/ΔT m FXR [1] | LTA4H LE [2] [kcal/mol] | IC50 [2] [µM] | Structure (SMILES)
1.2±0.0 °C | – | > 300 | Oc1ccc2cc[nH]c2c1 [Compound 5]
– | – | > 300 | CCN(Cc1ccccc1)c1ccccc1 [Compound 7]
21.7±3.5 ^[a] °C | 0.40 | 36.2 ± 7.6 | Oc1ccc(-c2ccc(F)cc2F)cc1 [Compound 9]
−11.6±2.1 °C | 0.31 | 255 ± 24.9 | Fc1ccc(-c2c[nH]c3ccccc23)cc1 [Compound 10]
